Patent US20180154142A1, “METHODS AND DEVICES FOR TREATMENT OF TUMORS WITH NANO-PULSE STIMULATION” (Old Dominion University Research Foundation, priority 2016, published 2018)

How the values were obtained:
[1] = tested on: 4T1 cells; experiment: cell surface calreticulin (CRT) on treated 4T1 cells, flow cytometry; assay type: cell-based, mouse; conditions: mitoxantrone 1 μM positive control; change from 4 hours to 24 hours following treatment; FIG. 18A
Protocol: (§1) Cells then were placed in a 6 well plate for 1 hour or 20 hours. Cells with media but no NPS treatment served as negative control and a known ICD inducer, mitoxantrone (1 μM) was added to cells as a positive control. Cell surface-exposed CRT was measured by flow cytometry (FACSAria). Extracellular ATP concentrations were quantified by the luciferase/luciferin-based ATP determination Kit (A22066, Thermo-Fisher). The amount of HMGB1 in the supernatant was determined by HMGB1 ELISA Kit (MBS722248, MyBioSource).

[2] = tested on: 4T1 cells; experiment: extracellular ATP release from treated 4T1 cells, luciferase/luciferin-based ATP determination kit; assay type: cell-based, mouse; conditions: mitoxantrone 1 μM positive control; change from 4 hours to 24 hours following treatment; FIG. 18B
Protocol: as §1

O=C1c2c(O)ccc(O)c2C(=O)c2c(NCCNCCO)ccc(NCCNCCO)c21 [MXT, mitoxantrone]
levels of calreticulin, mean fluorescence intensity (MFI) [1]: largest increase
levels of ATP release in the supernatants [2]: increases
